The values that follow come from the NIST ThermoML archive (doi:10.1016/j.jct.2005.03.011).

± gives the expanded uncertainty stated by the source.

One may read the mass density as mass per unit of volume.

For the data set the following is noted: Crystal; for Normal melting temperature: DTA; for mass density: 298 K, 101.33 kPa, Pycnometric method.

As to `Clc1ccc2ncccc2c1` [6-chloroquinoline], the Normal melting temperature was determined as 46 ± 0.5 °C. Same read-out and setting: the same measure for `Clc1ccc2c(Cl)ccnc2c1` [4,7-dichloroquinoline]: 92.4 ± 0.5 °C. Regarding `Clc1ccc2ccccc2n1` [2-chloroquinoline], the mass density came out at 1246 ± 2 kg/m3 and the Normal melting temperature turned out to be 38.4 ± 0.5 °C. On to `Clc1ccnc2ccccc12` [4-chloroquinoline], for which the mass density worked out at 1251 ± 2 kg/m3 and the Normal melting temperature is 35 ± 0.5 °C.
